Assay results from patent US4908380A, “Pharmaceutical compositions” (Imperial Chemical Industries plc, priority 1986, dated 1990).

Columns and labels:
[1] = tested on: U46619 induced hypertension; test: Test (d): U46619 induced hypertension in anaesthetised male rats (Alderley Park strain); format: in vivo, rat; conditions: 1 hour after oral dose of 0.5 mg/kg
Description: (d) Male rats (Alderley Park strain) are anaesthetised with sodium pentobarbital and blood pressure is monitored at the carotid artery. The TXA2 mimetic agent U46619 is administered intravenously at 5 μg/kg via the jugular vein to produce 20-30 mm/Hg (2640-3970 pascal) increase in systolic blood pressure. The process is repeated twice to ensure adequacy of response. A test compound is then administered either intravenously (via the jugular vein) or orally (via a cannula) directly into the stomach and the animal challenged with U46619, five minutes after dosing with test compound and then successively every ten minutes until the hypertensive effect of U46619 is no longer blocked.

[2] = tested on: thromboxane receptor; test: Test (a): rabbit or rat aortal strip, TXA2 antagonism (agonist TXA2 or U46619); format: cell-based; conditions: ±0.05
Description: It is believed that TXA2 exerts its physiological action through the thromboxane receptor, at which receptor various other prostanoid contractile substances derived from arachidonic acid, such as prostaglandins H2, F2 alpha and prostaglandin D2, can exert contractile effects. There are two principal ways in which the effects of TXA2 (and also of prostaglandins H2, F2 alpha and/or D2) can be ameliorated. […] The second way is to administer a pharmacological agent which inhibits one or more of the enzymes involved in the production of TXA2 and in particular, which inhibits the enzyme known as thromboxane synthetase (TXA2 synthetase). Such an agent is said to be a TXA2 synthetase inhibitor.
As stated earlier, the novel compounds of formula I are antagonists of one or more of the actions of TXA2, for example certain of its actions on blood platelets, the vasculature and/or the lung.
(a) The rabbit aortal strip model devised by Piper and Vane (Nature, 1969, 223, 29-35) or the rat aortal strip model developed by Kennedy et alia (Prostaglandins, 1982, 24, 667-689), using as agonist a freshly prepared sample of TXA2, generated by addition of arachidonic acid (25 μg) to citrated, platelet rich rabbit plasma (250 μl) and allowing the mixture to aggregate fully over 90 seconds before use; alternatively the TXA2 mimetic agent known as U46619 (described by R. L. Jones et alia in "Chemistry, Biochemistry and Pharmacological Activity of Prostanoids" edited by S. M. Roberts and F. Scheinmann, at page 211; Pergamon Press, 1979) may be used as the agonist; and
Using the above test procedures (a)-(c), the following representative results have been obtained with the compounds of formula II wherein (i) X^1 is 2-chloro, (ii) X^1 is 2-cyano; or (iii) X^1 is 4-cyano, respectively: […]

[3] = tested on: U46619 induced bronchoconstriction; test: Test (c): U46619 induced bronchoconstriction in Konzett-Rossler anaesthetised guinea-pig; format: in vivo; conditions: 2 hours after oral dosing at 0.05 mg/kg
Description: (c) a bronchoconstriction test involving measuring the inhibition by a test compound of the bronchoconstriction induced in the Konzett-Rossler, anaesthetised guinea-pig model (as modified by Collier and James, Brit.J.Pharmacol., 1967, 30, 283-307) by intravenous administration of the TXA2 mimetic agent, U46619 and involving:
(i) obtaining a cumulative dose-response curve to U46619 induced bronchoconstriction by intravenous administration of constant volumes of increasing concentrations of U46619 (0.2-4 μg/kg) in physiological saline solution and expressing bronchoconstriction as the maximum of that theoretically obtainable with no air flow to the test animal;
(ii) generating a cumulative dose-response curve to U46619 induced bronchoconstriction at 30 minute intervals for 3 hours after oral dosing of test compound; and
(iii) calculating a dose-ratio for the test compound (that is the ratio of concentration of U46619 required to cause 50% bronchoconstriction in the presence and absence of test compound) indicating the potency of TXA2 antagonism.

[4] = tested on: arachidonic acid induced aggregation of human platelets; test: Arachidonic acid induced aggregation of human platelets in vitro; format: cell-based; conditions: Platelet, read-out: % Inhibition of vehicle control
Description: The beneficial effects of combining one of the novel TXA2 antagonists of formula I defined hereinabove with a TXA2 synthetase inhibitor may be illustrated in vitro, for example by evaluating their effects in inhibiting arachidonic acid induced aggregation of human platelets, using standard procedures well known in the art. Thus, for example, the following results were obtained with the TXA2 antagonist described hereinafter in Ex. 2, 6 and 20 (Compound A) and the TXA2 synthetase inhibitor known as dazoxiben (Compound B): […]

[5] = tested on: diamondback moths; test: Catches of diamondback moths (lures)

## N#Cc1ccc([C@H]2OC[C@@H](C/C=C\CCC(=O)O)[C@@H](c3ccccc3O)O2)cc1 (relative stereo) [(iii)]
[1]
  inhibition of U46619 induced hypertension: > 40%
[2]
  pA2: 7.45
[3]
  dose ratio: > 350

## O=C(O)c1ccc(OCCn2ccnc2)cc1 [B]
[4]; B at 10^-4 M
  inhibition at 100 µM: 32.2 ± 16.3%
[4]; B at 10^-5 M
  inhibition at 10 µM: 4.5 ± 1.8%

## N#Cc1ccc([C@H]2OC[C@@H](C/C=C\CCCC(=O)O)[C@@H](c3ccccc3)O2)cc1 (relative stereo) [(v), reference compound]
[2]
  pA2: 5.65

## O=C(O)CCC/C=C\C[C@@H]1CO[C@H](c2ccccc2Cl)O[C@@H]1c1ccccc1 (relative stereo) [(iv), 5(Z)-7-([2,4,5-cis]-2-o-chlorophenyl-4-phenyl-1,3-dioxan-5-yl)heptenoic acid, reference compound]
[2]
  pA2: 6.22

## CCCC/C=C\CCCCCCCCCCOC(C)=O [HLA, ( --Z)-11-hexadecenyl acetate]
[5]; week 1
  Weekly catch week 1: 0
[5]; week 2
  Weekly catch week 2: 1
[5]; week 3
  Weekly catch week 3: 5
[5]; week 4
  Weekly catch week 4: 3

## O=C(O)CC/C=C\C[C@@H]1CO[C@H](c2ccccc2Cl)O[C@@H]1c1ccccc1O (relative stereo) [(i), 4(Z)-6-([2,4,5-cis]-2-o-chlorophenyl-4-o-hydroxyphenyl-1,3-dioxan-5-yl)hexenoic acid]
[4]; A at 10^-9 M
  inhibition at 0.001 µM: 2.2 ± 0.8%
[1]
  inhibition of U46619 induced hypertension: > 80%
[2]
  pA2: 8.02

## N#Cc1ccccc1[C@H]1OC[C@@H](C/C=C\CCC(=O)O)[C@@H](c2ccccc2O)O1 (relative stereo) [(ii), 4(Z)-6-([2,4,5-cis]-2-o-cyanophenyl-4-o-hydroxyphenyl-1,3-dioxan-5-yl)hexenoic acid]
[1]
  inhibition of U46619 induced hypertension: > 80%
[2]
  pA2: 8.09
[3]
  dose ratio: > 32
